According to ChEMBL document CHEMBL6153121, “Anti-Inflammatory Dimeric and Trimeric Flavonoids from the Roots ofPistacia weinmannifolia” (J Nat Prod, 2025):
Calls of active or inactive are those of the source. No cut-off for these calls is given here.

Key:
NCI-H292 [1] = experiment: Antiinflammatory activity against PMA-stimulated human NCI-H292 cells assessed as reduction in IL-8 secretion at 1 uM incubated for 24 hrs by ELISA; format: functional, cell-based
NCI-H292 [2] = experiment: Antiinflammatory activity against PMA-stimulated human NCI-H292 cells assessed as reduction in MUC5AC secretion at 1 uM incubated for 24 hrs by ELISA; format: functional, cell-based
NCI-H292 [3] = experiment: Cytotoxicity against human NCI-H292 cells assessed as redcution in cell viability at 0.25 to 1 uM incubated for 24 hrs in presence of PMA by CCK-8 assay; format: toxicity, cell-based; conditions: nci-h292, 24 h, dose 0.25-1 µM

SMILES	Activity (NCI-H292 [1])	Activity (NCI-H292 [2])	Activity (NCI-H292 [3])
O=C(/C=C/c1ccc(O)cc1)c1ccc2c(c1O)[C@H](C(=O)c1ccc(O)cc1O)[C@@H](c1ccc(O)cc1)O2	Active	Active	
O=C(/C=C/c1ccc(Oc2ccc([C@H]3Oc4cc(O)ccc4C(=O)[C@@H]3[C@@H]3C(=O)c4ccc(O)cc4O[C@H]3c3ccc(O)c(O)c3)cc2)cc1)c1ccc(O)cc1O			Toxic
O=C(/C=C/c1ccc(Oc2cc(C(=O)/C=C/c3ccc(O)cc3)c(O)cc2O)cc1)c1ccc(O)cc1O	Active; Effectively Inhibited The Secretion	Active; Effectively Inhibited The Secretion	
O=C(/C=C/c1ccc(Oc2c(O)ccc(C(=O)/C=C/c3ccc(O)cc3)c2O)cc1)c1ccc(O)cc1	inactive	Active	
O=C(/C=C/c1ccc(Oc2ccc(/C=C/C(=O)c3ccc(O)cc3O)cc2O)cc1)c1ccc(O)cc1O	Active; Effectively Inhibited The Secretion	Active; Effectively Inhibited The Secretion	
O=C(/C=C/c1ccc(O)c(-c2cc(C(=O)/C=C/c3ccc(O)cc3)c(O)cc2O)c1)c1ccc(O)cc1O	Active	Active	
O=C(/C=C/c1ccc(Oc2ccc([C@@H]3[C@@H](C(=O)c4ccc(O)cc4O)[C@H](C(=O)c4ccc(O)cc4O)[C@H]3c3ccc(O)cc3)cc2O)cc1)c1ccc(O)cc1O	Active; Effectively Inhibited The Secretion	Active; Effectively Inhibited The Secretion	
O=C1C[C@@H](c2ccc(O)cc2)Oc2cc(Oc3ccc([C@@H]4[C@@H](C(=O)c5ccc(O)cc5O)[C@H](C(=O)c5ccc(O)cc5O)[C@H]4c4ccc(O)cc4)cc3O)ccc21	Active	Active	
